Values of other authors, collected in patent publication US20050031668A1, “Implantable polymeric device for sustained release of nalmefene” (priority 2003, published 2005).

Experiments:
[1] = in vivo
[2] = not given; remark: listed apart in the source
[3] = in vivo; remark: listed apart in the source
[4] = not given; remark: listed apart in the source

| Compound | opioid receptors acted on (μ, δ, and κ receptors) | limitations of use: hepatotoxicity [1] | limitations of use: nausea [1] | nausea (20 or 80 mg/day orally) | serious adverse events (20 or 80 mg/day orally) | proportion of nalmefene patients who relapsed (20 or 80 mg/day orally, twelve weeks) | relapse to heavy drinking versus placebo (20 or 80 mg/day orally, twelve-week study, 105 alcoholic patients) | number of abstinent days and self-reported craving (treated versus control groups) | rate of relapse compared with placebo or 10 mg nalmefene ([2]; 40 mg oral, 21 alcohol-dependent patients) | number of drinks per drinking day ([2]; 40 and 10 mg doses) | agonist activity (μ, δ, and κ receptors) | efficacy in animal models of alcoholism [3] | half-life ([4]; compared with naltrexone) | serious adverse effects ([4]; in vivo) |
| --- | --- | --- | --- | --- | --- | --- | --- | --- | --- | --- | --- | --- | --- | --- |
| O=C1CC[C@@]2(O)[C@H]3Cc4ccc(O)c5c4[C@@]2(CCN3CC2CC2)[C@H]1O5 [naltrexone] | primarily blocks μ receptors | dose-dependent hepatotoxic side effects | intolerable nausea | – | – | – | – | – | – | – | – | – | – | – |
| C=C1CC[C@@]2(O)[C@H]3Cc4ccc(O)c5c4[C@@]2(CCN3CC2CC2)[C@H]1O5 [nalmefene] | acts on μ, δ, and κ receptors | – | – | Transient nausea | no serious adverse events occurred | One-third | Fewer patients receiving nalmefene relapsed to heavy drinking | the same in treated and control groups | significantly lower rate of relapse | significantly decreased | no agonist activity | effective | longer half-life | no serious adverse effects |
